# Measured values: patent US20130039928A1, “COMPOSITIONS AND METHODS FOR REVERSING CORTICOSTEROID RESISTANCE OR TREATING RESPIRATORY INFECTIONS” (priority 2010, published 2013)
# Where two headings read alike, the source gives them in different places. Peptide text beside a SMILES is read from it. * marks the point of attachment. Cbz = O=C(OCc1ccccc1)*
# Columns and labels:
# HDAC2 [1] = assay: Posttranslational modification of HDAC2 in alveolar macrophages (immunoblot, DAN, biotin-switch); assay type: cell-based, human; conditions: for levels of SNO-HDAC2: GSNO-exposed alveolar macrophages
# Experimental: S-nitrosylation of proteins was analyzed by anti-SNO antibody, biotin switch assay, and or 2,3-diaminonapthalene (DAN) assay. […] Detail methodology is described in supplementary data.
# (§1) Macrophage cell or lung tissue extracts were prepared by using 100 μL of immunoprecipitation buffer (50 mM Tris-HCl, pH 8.0, 150 mM NaCl, 1.0% Triton X-100, 0.5% NP-40, 0.1% SDS, 0.5% deoxycholate, and complete protease inhibitor cocktail) from Roche (Morristown, N.J.). The lysis mixture was incubated on ice for 15 minutes and microcentrifuged for 10 minutes at 4° C. Extracts were precleared with 20 μL protein A/G sepharose beads (a 50:50 mix) from Thermo scientific (Rockford, Ill.) and 2 μg of normal IgG. After microcentrifugation, 20 μL of protein A/G sepharose conjugated with 5 μg of antibody was used to precipitate HDAC2 (Santa Cruz Biotechnology, Santa Cruz, Calif.) overnight at 4° C. with rotation. The immune complexes were pelleted with gentle centrifugation, washed twice with 1 mL of immunoprecipitation buffer, and divided equally for the final wash for the activity assay and immunoblotting. For the HDAC assay, immunoprecipitates were resuspended in the activity assay buffer (50 mM TrisHCl, pH 8.0; 10% glycerol; 1 mM dithiothreitol; 0.1 mM EDTA, complete protease inhibitor cocktail). For HDAC2-specific western blotting, immune complexes were washed three times with the immunoprecipitation buffer and finally resuspended in Laemmli buffer for the SDS-PAGE.
# For HDAC2-specific nitrosylation detection, cells were lysed in buffer (50 mM Tris-HCl, pH 8.0, 150 mM NaCl, 1% Nonidet P-40, 0.5% deoxycholic acid, 0.1% SDS). […] The pellets were resuspended in 500 μL of PBS.
# This assay was performed in the dark.
# The Image J program was used for densitometry analyses.
# HDAC2 [2] = assay type: cell-based, human
# Experimental: (§2) For inducing corticosteroid resistance, PMs were exposed to cigarette smoke condensate (CSC, 100 μg/ml; Murty Pharmaceuticals, Lexington, Ky.) for 16 h. Exposure to S-nitrosoglutathione (GSNO, 10 μM) was limited to 4 h. […] For assessing corticosteroid responsiveness, macrophages were incubated with dexamethasone (1 μM, Sigma) for 1 h followed by LPS (100 ng/ml, Sigma) for additional 4 h.
# (§3) HDAC activity was measured using a fluorescent derivative of ε-acetyl-lysine from Enzo life sciences (Farmingdale, N.Y.) according to the manufacturer's recommendations. HDAC2 was immunoprecipitated for analysis of enzymatic activity.
# as §1
# NO = NO levels and iNOS expression in alveolar macrophages; assay type: cell-based, human; conditions: COPD alveolar macrophages, vs vehicle
# Experimental: as §2, §3
# (§4) Total RNA was extracted from the cells by lysis and specific binding to a silica membrance (Qiagen RNeasy kit, Qiagen, Valencia, Calif.), and qRT-PCR was performed by using primers and probe sets for human IL-8, NQO1, GCLM, and iNOS (Assay-on-Demand, Applied Biosystems, Foster City, Calif.). A real-time fluorescent PCR system (ABI 7000 Taqman system, Applied Biosystems) was used to perform these assays. β-actin was used as the normalization control.
# IL-8 = assay: Corticosteroid responsiveness: basal and LPS-induced IL-8 secretion by alveolar macrophages; assay type: cell-based, human
# Experimental: as §2
# For human IL-8 and mouse IL-6 and MCP-1 proteins, Quantikine ELISA kits from R&D systems (Minneapolis, Minn.) were used according to the manufacturer's instructions.
# glutathione = assay: Intracellular glutathione levels in COPD macrophages; assay type: cell-based, human; conditions: COPD alveolar macrophages
# Pseudomonas aeruginosa = assay: Clearance of bacteria in vitro by alveolar macrophages (PA); assay type: cell-based; conditions: COPD alveolar macrophages
# Experimental: Human alveolar macrophages were purified from individual BAL samples by centrifugation and seeded onto 6-well tissue culture plates. After incubation for 2 h, non-adherent cells were removed and the adherent cells were incubated with R, S-sulforaphane (5 μM; LKT Laboratories, Inc., St. Paul, Minn.) and or DMSO in RPMI 1640 culture medium with 10% FBS and 1% penicillin-streptomycin (Invitrogen, Carlsbad, Calif.). After 16-20 h, adherent cells were scraped, suspended in RPMI 1640 culture media and plated onto 96-well tissue culture plates for bacterial phagocytosis and clearance assays. […] For MARCO antibody-depletion, alveolar macrophages were incubated with human anti-MARCO antibody (1 μg/ml; (Hycult, Uden, The Netherlands) for 4 hours prior to bacterial challenge.
# Sputum isolates of nontypeable H. influenzae and P. aeruginosa obtained from patients with COPD at the Department of Veterans Affairs, Western New York Healthcare System were used (S. Sethi, N. Evans, B. J. Grant, T. F. Murphy, N Engl J Med 347, 465 (Aug. 15, 2002); C. S. Berenson, M. A. Garlipp, L. J. Grove, J. Maloney, S. Sethi, J Infect Dis 194, 1375 (Nov. 15, 2006); T. F. Murphy et al., Am J Respir Crit Care Med 177, 853 (Apr. 15, 2008); T. F. Murphy, A. L. Brauer, A. T. Schiffmacher, S. Sethi, Am J Respir Crit Care Med 170, 266 (Aug. 1, 2004)). For bacterial growth, H. influenzae was cultured on chocolate agar or grown in brain heart infusion broth supplemented with 20 μg/mlNAD and 10 μg/ml hemin at 35° C. in 5% CO2. P. aeruginosa was cultured on LB agar plates or in LB broth at 37° C. For FITC-labeling of bacteria, heat inactivated PA and NTHI (10^9 CFU/ml) were resuspended in 1 ml of labeling buffer (0.1 M NaHCO3, pH 9.2) and incubated with fluorescein isothiocyanate (FITC) (Sigma) under constant stiffing in the dark at room temperature for 1 h. Finally, bacteria were washed three times with PBS and dialyzed overnight against PBS. FITC-labeled bacteria were resuspended with PBS at a concentration of 10^9/ml.
# After treatment, macrophages (10^5 cells) were incubated with bacteria (PA or NTHI) for 4 h. Subsequently, 100 μL of cell free culture medium was aseptically plated and cultured on tryptose blood and or chocolate agar plates at 37° C. The number of bacterial colonies was counted after 24 h.
# HDAC2 [3] = assay type: cell-based, human; conditions: COPD alveolar macrophages
# Experimental: as §2
# All immunoblots were performed by using protocols as described previously (Barnes, P. J., N Engl J Med 343, 269-280 (2000)). Rabbit anti-HDAC2 antibody from Santa Cruz Biotechnology (Santa Cruz, Calif.) was used at 1:500 dilutions. Rabbit anti-5-nitroso-cysteine antibody from Alpha diagnostics was used at 1:500 dilutions. Rabbit anti-nitro-tyrosine antibody from Cell Signaling Technology, was used at 1:250 dilution. Rabbit anti-ubiquitin antibody from Santa Cruz Biotechnology (Santa Cruz, Calif.) was used at 1:1000 dilutions. Rabbit anti-GR antibody from Santa Cruz Biotechnology (Santa Cruz, Calif.) was used at a dilution of 1:1000. Rabbit anti-MMP9 antibody from Sigma Aldrich was used at 1:500 dilutions. Rabbit anti-acetyl-lysine antibody from Abcam was used at 1:750 dilutions. Rabbit anti-lamin-B1 from Santa Cruz Biotechnology (Santa Cruz, Calif.) was used at 1:1000 dilutions as a loading control. The Image J program was used for densitometry analyses.
# as §4
# IL-8 promoter = assay: ChIP of IL-8 promoter (histone acetylation, HDAC2 binding) in alveolar macrophages; assay type: cell-based, human
# Experimental: as §2
# Chromatin immunoprecipitation was performed as described previously (Hogg, J. C. & Timens, W., Annu Rev Pathol (2008)). Briefly, cells were fixed in ˜1% formaldehyde in cell growth media for 10 minutes followed by glycine fixation. Cells were then sonicated in ChIP-lysis buffer containing a protease inhibitor cocktail after incubation on ice for 30 minutes. […] sonication, the samples were spun at maximum speed for 12 minutes in a cold microcentrifuge. The supernatants were then addressed as input samples. A part of the input sample was precleared by using a 50% slurry of protein A/G beads prepared in immunoprecipitation (IP) buffer for 2 hours in the cold, following which the beads were centrifuged out and the supernatant was used for IP. Then the precleared samples were incubated with 2 μg of panacetylated histone H4 antibody (ChIP assay kit; Upstate Biotechnology) or anti-HDAC2 antibody from Santa Cruz Biotechnology. As a control, anti-rabbit IgG antibody was added for 1 hour in the cold. The protein A/G bead slurry was added to each reaction and was rotated overnight. The next day, the beads were washed extensively, and the DNA was reverse crosslinked, eluted in elution buffer, and stored at −80° C. until used for sequencing or PCR validation assays. […] This immunoprecipitated DNA was used for PCR amplification by using the specific gene (IL-8 for humans and MCP-1 for mice) promoter PCR assays. PCR primers were used for the IL-8 promoter (forward: 5′-[…]-3′ and reverse: 5′-[…]-3′) and the MCP-1 promoter (forward: 5′-[…]-3′ and reverse: 5′-[…]-3′).
# HDAC2 [4] = target: T1, HDAC2 (Homo sapiens, UniProt Q92769); assay: Cell-free denitrosylation and activity of HDAC2 (cell lysates, IP-HDAC2); assay type: biochemical
# T1 construct: HDAC2 was immunoprecipitated for analysis of enzymatic activity; endogenous in cells; host or cells: alveolar macrophages from patients with COPD; HDAC2 immunoprecipitated with the Santa Cruz antibody
# Experimental: as §3, §1
# S-nitrosylated proteins were detected by using the nitrate/nitrite fluorometric assay kit from Cayman chemicals (Ann Arbor, Mich.) according to the manufacturer's instructions. For HDAC2-specific nitrosylation detection, cells were lysed in buffer (50 mM Tris-HCl, pH 8.0, 150 mM NaCl, 1% Nonidet P-40, 0.5% deoxycholic acid, 0.1% SDS). These lysates were then subjected to immunoprecipitation by using an anti-HDAC2 antibody as described above. The immunoprecipitates were washed twice with lysis buffer and twice with PBS. The pellets were resuspended in 500 μL of PBS. After the addition of 100 μM HgCl2 and 100 μM DAN, the samples were incubated in the dark at 25° C. for 30 minutes, and 1 M NaOH was added. The generated fluorescent triazole from the reaction of the DAN with the NO released from the HDAC2 protein was measured by using an excitation wavelength of 375 nm and an emission wavelength of 450 nm. As a negative control, the antibody alone in lysis buffer was immunoprecipitated. The resulting background fluorescence intensity was subtracted for each experiment.
# [5] = target: recombinant HDAC2 (rHDAC2) (Homo sapiens, UniProt Q92769); assay: Cell-free enzymatic activity of recombinant HDAC2; assay type: biochemical
# Experimental: as §3
# [6] = COPD alveolar macrophages, result in words
# [7] = cell lysates incubated with GSH
# T1 sequence (Q92769 whole entry): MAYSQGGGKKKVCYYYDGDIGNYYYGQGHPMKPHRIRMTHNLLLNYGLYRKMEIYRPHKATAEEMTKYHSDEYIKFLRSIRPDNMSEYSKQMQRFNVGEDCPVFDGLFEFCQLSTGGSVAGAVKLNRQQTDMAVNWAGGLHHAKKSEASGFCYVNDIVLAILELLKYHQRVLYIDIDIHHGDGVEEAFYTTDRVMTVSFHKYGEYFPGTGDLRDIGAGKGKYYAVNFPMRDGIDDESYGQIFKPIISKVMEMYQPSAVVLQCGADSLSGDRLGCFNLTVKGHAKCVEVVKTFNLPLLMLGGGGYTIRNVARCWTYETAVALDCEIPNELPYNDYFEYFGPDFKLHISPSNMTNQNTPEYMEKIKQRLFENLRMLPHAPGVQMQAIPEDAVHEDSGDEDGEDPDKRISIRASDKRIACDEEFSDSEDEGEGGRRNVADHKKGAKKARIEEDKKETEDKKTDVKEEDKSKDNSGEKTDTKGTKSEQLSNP
# Sequence of recombinant HDAC2 (rHDAC2) (Q92769 whole entry, species assumed): as the sequence (Q92769 whole entry) above
smiles,measurement,setting,value
"COC(=O)[C@@H](N)CCCNC(=N)N[N+](=O)[O-] [L-NAME, L-nitroarginine methyl ester]",tyrosine nitration of HDAC2 (nitrotyrosine-HDAC2),"HDAC2 [1]; immunopurified HDAC2 from alveolar macrophages, compared with vehicle",significantly decreased levels of nitrotyrosine-HDAC2
same,HDAC2 enzymatic activity,HDAC2 [2]; [6],failed to increase HDAC2 enzymatic activity
same,NO levels,NO,suppressed NO generation
same,DEX's repressive effect on basal and LPS-induced IL-8 expression (DEX responsiveness),IL-8; protein and mRNA,failed
"CCOC(=O)CNC(=O)[C@H](CS)NC(=O)CC[C@H](N)C(=O)O [GSH-e, GSH-ethyl ester]",levels of SNO-HDAC2,HDAC2 [1],significant reduction in the levels of SNO-HDAC2
same,HDAC2 enzymatic activity,HDAC2 [2]; treatment after GSNO exposure of alveolar macrophages,significantly elevated HDAC2 enzymatic activity
same,intracellular glutathione levels,glutathione,increased intracellular glutathione levels
same,bacterial clearance,Pseudomonas aeruginosa,failed to improve bacterial clearance
same,repressive effect of DEX on basal and LPS-induced IL-8 secretion,"IL-8; GSNO exposed COPD alveolar macrophages, GSH-e 1 mM",significantly increased the repressive effect of DEX
CC(C)C[C@@H](C=O)NC(=O)[C@H](CC(C)C)NC(=O)[C@H](CC(C)C)NC(=O)OCc1ccccc1 [MG132] (Cbz-Leu-Leu-Leu-aldehyde),HDAC2 protein levels,HDAC2 [3],increase in total HDAC2 protein
same,HDAC2 binding in the IL-8 promoter,IL-8 promoter; COPD alveolar macrophages,no increase
same,HDAC2 enzymatic activity,HDAC2 [2]; [6],no increase in HDAC2 enzymatic activity
"CC(=O)N[C@@H](CS)C(=O)O [NAC, N-acetyl cysteine]",levels of SNO-HDAC2,HDAC2 [1],failed to ameliorate SNO-HDAC2 levels
same,intracellular glutathione levels,glutathione,increased intracellular glutathione levels
same,bacterial clearance,Pseudomonas aeruginosa,failed to improve bacterial clearance
"CC(/C=C/C(=O)NO)=C\[C@@H](C)C(=O)c1ccc(N(C)C)cc1 [TSA, trichostatin]",basal and LPS-induced histone acetylation in the IL-8 promoter region,"IL-8 promoter; cotreatment with sulforaphane, with and without DEX",ablated sulforaphane repressed basal and LPS-induced histone acetylation
"N[C@@H](CCC(=O)N[C@@H](CSN=O)C(=O)NCC(=O)O)C(=O)O [GSNO, S-nitrosoglutathione]",S-nitrosylation of IP-HDAC2,HDAC2 [4]; GSNO exposure,elevated S-nitrosylation
same,enzymatic activity of IP-HDAC2,HDAC2 [4]; GSNO exposure,decreased enzymatic activity
same,HDAC2 enzymatic activity,HDAC2 [2]; [6],decreased HDAC2 enzymatic activity
same,rHDAC2 enzymatic activity,[5]; with GSNO,significantly inhibited rHDAC2 enzymatic activity
same,DEX resistance,IL-8; GSNO exposure,did not further increase DEX resistance
same,LPS-induced IL-8 secretion,"IL-8; GSNO treatment (10 μM, 4 h)",moderately augmented LPS-induced IL-8 secretion
"N[C@@H](CCC(=O)N[C@@H](CS)C(=O)NCC(=O)O)C(=O)O [GSH, glutathione]",S-nitrosylation and enzymatic activity of GSNO-exposed IP-HDAC2,HDAC2 [4]; after incubation with GSH,reversed by GSH treatment
same,HDAC2 activity,HDAC2 [4]; [7],concurrent increase in HDAC2 activity
same,nitrosylation (DAN assay),HDAC2 [4]; [7],denitrosylation by GSH
same,rHDAC2 enzymatic activity after GSNO treatment,[5]; in the presence of GSH,restored by GSH
